Test results published in PubChem BioAssay (NCI).
Where “and” joins values, the source holds several entries; their conditions need not be identical. Identical values can stand only once.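 Interpolation was linear, between the two tested concentrations surrounding the appropriate level; five concentrations were tested over 48 hours in 96-well plates. TGI is the concentration that stops growth completely.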

What was measured:
Test in all cases: NCI-60 cell line screen, 48 h
[1] = test system: HOP-92 NSCLC
[2] = test system: UO-31 renal
[3] = test system: U251 CNS
[4] = test system: HOP-62 NSCLC
[5] = test system: SK-OV-3 ovarian
[6] = test system: SNB-19 CNS
[7] = test system: UACC-257 melanoma
[8] = test system: SF-268 CNS
[9] = test system: DU-145 prostate
[10] = test system: HCC-2998 colon

Row | Compound | TGI [1] | TGI [2] | TGI [3] | TGI [4] | TGI [5] | TGI [6] | TGI [7] | TGI [8] | TGI [9] | TGI [10]
1 | CCCCCCCCCCCCOC1C(COCCN2CCCC2)OC2OC(C)(C)OC21 (stereo not given) | 2.72 µM | 2.96 µM | 3.12 µM | 3.2 µM | 3.33 µM | 10.2 µM | 3.14 µM | 4.44 µM | 23.1 µM | 
2 | Cc1nc2c(n1Cc1ccc(Cl)cc1)C(=O)c1ccccc1C2=O |  | > 75 µM | > 75 µM | > 75 µM | > 75 µM | > 75 µM | > 75 µM | > 75 µM |  | > 75 µM
3 | Cc1cc(S(=O)(=O)Nc2n[nH]c(Nc3ccccc3)n2)c(S)cc1Cl |  | > 10 µM | > 10 µM | > 10 µM | > 10 µM | > 10 µM | > 10 µM | > 10 µM | > 10 µM | > 10 µM
4 | Brc1ccc(N2C[N+](c3ccc(Br)cc3)=NC(c3ccccc3)=N2)cc1 | 34.1 µM and > 100 µM | 27.6 µM and > 100 µM | 33.5 µM and > 100 µM | 31.2 µM and > 100 µM | 34.3 µM and > 100 µM | 32.6 µM and > 100 µM | 31.3 µM and > 100 µM | 35.8 µM and > 100 µM |  | 28.7 µM and > 100 µM
5 | COc1ccc(Cn2nc(OCc3ccccn3)c3cc([N+](=O)[O-])ccc32)cc1 |  | > 100 µM |  | > 100 µM | > 100 µM | > 100 µM | > 100 µM | > 100 µM | > 100 µM | > 100 µM
6 | C/C(=N\N(C)C)C(CN(C)C)C(c1ccccc1)c1c(O)c2ccccc2oc1=O (stereo not given) | > 100 µM |  | > 100 µM |  | > 100 µM | > 100 µM | > 100 µM | > 100 µM |  | > 100 µM
